Values joined by “and” are separate entries in the source; they are usually repeats but may differ in a detail not shown here. Equal values may be shown once.

The test system of the assay is 945468-187-T-J2-PDC spheroids viability. The assay can be described thus: Anticancer human tumor 945468-187-T-J2-PDC patient-derived rectal carcinoma cell line growth inhibition [PI3K]. To be noted: spheroids with HUVEC and MSC; for viability, T/C: stronger effect = lower value. The text has this:
Combinatorial screen of targeted agents with the PI3K inhibitors inavolisib, alpelisib, duvelisib, and copanlisib in multi-cell type tumor spheroids
A high-throughput screen of multi-cell type tumor spheroids was designed to identify active combinations of targeted small molecules and PI3K pathway inhibitors. Complex spheroids include a stromal component modeled by human endothelial cells (HUVEC) and fibroblasts modeled by human mesenchymal stem cells (MSCs). The concentration ranges selected for each drug and investigational agent were based upon clinically achievable concentrations if the clinical Cmax of the agent was known.
Compounds. The drugs and investigational agents: inavolisib (NSC800729), alpelisib (NSC765974), duvelisib (NSC772469), copanlisib (NSC816437), ipatasertib (NSC767898), afuresertib (NSC778305), talazoparib (NSC767125), sapanisertib (NSC764658), selumetinib (NSC741078), tovorafenib (DAY101, NSC766906), vemurafenib (NSC761431), ravoxertinib (NSC781343), sotorasib (NSC818433), MRTX1133 (NSC 836407), abemaciclib (NSC 768073), palbociclib (NSC758247), venetoclax (NSC 766270), SY5609 (NSC837396), enzalutamide (NSC755605), and darolutamide (NSC825331), were obtained from the National Cancer Institute (NCI) Developmental Therapeutics Program Chemical Repository. The FDA-approved anticancer drug set is available from the NCI Developmental Therapeutics Program. […] The stock solutions were prepared in dimethyl sulfoxide (DMSO, Sigma-Aldrich, St. Louis, MO, cat. D2650) at 800-fold the tested concentration and stored at -70 degrees C prior to their use. All drugs and investigational agents were tested over a range starting from a high concentration at or near the clinical Cmax and decreasing in half-log increments. If the clinical Cmax for an agent had not been determined, the highest concentration tested was 10 microM.
Cell Culture. All cells were maintained in an incubator at 37 degrees C and 5% CO2 with 95% humidity. The PDC lines were cultured according to standard operating procedures established by the NCI PDMR (https://pdmr.cancer.gov/sops/default.htm). All PDCs were thawed and cultured in Matrigel-coated flasks prepared with a working solution of 1X Ham's F-12 nutrient mix, without supplementation (Invitrogen, Waltham, MA, cat. 11765054), 100 U/mL penicillin-streptomycin (Invitrogen, cat. 15140122), and 2.5% Matrigel (Corning Inc., Corning, NY, cat. 354248) for the first three passages. The 354836-022-R-J1-PDC, 475296-252-R-J1-PDC, and 997726-040-R-J2-PDC lines were cultured in 6A media, which includes advanced DMEM/F-12 (Thermo Fisher Scientific, cat. 12634028), 10 mM HEPES (Thermo Fisher Scientific, cat. 15630080), 1X GlutaMAX supplement (Thermo Fisher Scientific, cat. 35050061), 0.1 mg/mL primocin (InvivoGen, San Diego, CA, cat. ant-pm-2), 10% defined fetal bovine serum, heat inactivated (HyClone Laboratories Inc., Logan, UT, cat. SH30070.03HI), 50% L-WRN conditioned media (ATCC, cat. CRL-3276), 1.25 mM N-Acetyl-L-cysteine (Sigma-Aldrich, cat. A9165), 10 mM nicotinamide (Sigma-Aldrich, cat. N0636), 1X B-27 supplement (Thermo Fisher Scientific, cat. 17504044), 1X N-2 supplement (Thermo Fisher Scientific, cat. 17502048), and 10 microM Y-27632 dihydrochloride (Tocris Bioscience, Bristol, United Kingdom, cat. 1254). The 624824-186-R-J2-PDC line was cultured in 6C/Colon 1B media, which includes all 6A media components plus 50 ng/mL human EGF recombinant protein (Thermo Fisher Scientific, cat. PHG0311). […]

[1] abbreviates: compound alone, run of 04/24/2023.
The mark [2] stands for this setting: compound alone, run of 04/25/2023.
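Further: spheroids exposed to compounds for seven days before reading.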

Consider `C#Cc1c(F)ccc2cc(O)cc(-c3ncc4c(N5CC6CCC(C5)N6)nc(OCC56CCCN5CC(F)C6)nc4c3F)c12` (stereo not given), for which the viability, T/C (as a rule, the ratio of treated to control) (compound 0.0316 µM) is 109% [middle of 4 runs]; the viability, T/C (compound 0.316 µM) is 106% (2×) and 90.2% and 116%. Further, the IC50 (in general, the concentration that inhibits the measured activity by half) (curve of compound) is above 10 µM.
Consider `C=CC(=O)N1CCN(c2nc(=O)n(-c3c(C)ccnc3C(C)C)c3nc(-c4c(O)cccc4F)c(F)cc23)C(C)C1` (stereo not given), for which the viability, T/C by setting is: (compound 0.1 µM) 104% [middle of 4 runs]; (compound 0.316 µM) 95.7% [middle of 4 runs]; (compound 3.16 µM) 104% (2×) and 113% and 89.9%; (compound 10 µM) 107% [middle of 4 runs]. Further, the IC50 (curve of compound) was above 10 µM.
For `CC(=O)c1c(C)c2cnc(Nc3ccc(N4CCNCC4)cn3)nc2n(C2CCCC2)c1=O`, the viability, T/C is, setting by setting: (compound 0.000316 µM) 105% [middle of 4 runs]; (compound 0.00316 µM) 90.6% [middle of 4 runs]; (compound 0.01 µM) 104% [middle of 4 runs]. The IC50 (curve of compound) is above 0.1 µM.
For `CC(C)NCC(C(=O)N1CCN(c2ncnc3c2C(C)CC3O)CC1)c1ccc(Cl)cc1` (stereo not given), the viability, T/C is 91.8% [middle of 4 runs] (compound 0.1 µM), 90.2% [middle of 4 runs] (compound 0.316 µM), 103% [middle of 4 runs] (compound 1 µM) and 99.7% [middle of 4 runs] (compound 3.16 µM). Under “curve of compound”, the IC50 is above 10 µM.
As to `CC(C)n1nc(-c2ccc3oc(N)nc3c2)c2c(N)ncnc21`, the viability, T/C is, setting by setting: (compound 0.001 µM) 92.3% [middle of 4 runs]; (compound 0.0316 µM) 94.4% [middle of 4 runs]; (compound 0.1 µM) 71.9% [middle of 4 runs]. Moreover, the 50% inhibitory concentration (IC50) (curve of compound) is above 0.1 µM.
As to `CC(Cn1ccc(-c2ccc(C#N)c(Cl)c2)n1)NC(=O)c1cc(C(C)O)[nH]n1` (stereo not given), the viability, T/C (compound 3.16 µM) was 93.7% [middle of 4 runs]. Under “curve of compound”, the half-maximal inhibitory concentration (IC50) is above 10 µM.
Turning to `CC(Nc1ccc2c(c1)OCCn1cc(N3C(=O)OCC3C(F)F)nc1-2)C(N)=O` (stereo not given), the viability, T/C is 99% [middle of 8 runs] (compound 0.01 µM), 106% [middle of 8 runs] (compound 0.1 µM), 91.7% [middle of 8 runs] (compound 0.316 µM) and 76.9% [middle of 8 runs] (compound 1 µM). The 50% inhibitory concentration (IC50) under setting [1] was above 1 µM.
For `CC(Nc1ncnc2nc[nH]c12)c1cc2cccc(Cl)c2c(=O)n1-c1ccccc1` (stereo not given), the viability, T/C by setting is: (compound 0.1 µM) 91.9% [middle of 8 runs]; (compound 0.316 µM) 96.3% [middle of 8 runs]; (compound 10 µM) 103% [middle of 8 runs]. Moreover, the IC50 under setting [2] was above 10 µM.
Consider `CC1(C)CCC(CN2CCN(c3ccc(C(=O)NS(=O)(=O)c4ccc(NCC5CCOCC5)c([N+](=O)[O-])c4)c(Oc4cnc5[nH]ccc5c4)c3)CC2)=C(c2ccc(Cl)cc2)C1`, for which the viability, T/C is, setting by setting: (compound 0.316 µM) 94.6% [middle of 4 runs]; (compound 1 µM) 103% [middle of 4 runs]; (compound 3.16 µM) 96.3% [middle of 4 runs]. Moreover, the IC50 (curve of compound) is above 10 µM.
For `CC1(C)CCC(Nc2ncc(C(F)(F)F)c(-c3c[nH]c4c(P(C)(C)=O)c(C#N)ccc34)n2)CN1` (stereo not given), the viability, T/C was 94.2% (2×) and 113% and 89.1% (compound 0.0316 µM); 96.6% [middle of 4 runs] (compound 0.1 µM); 43% [middle of 4 runs] (compound 3.16 µM).
For the molecule `CCCS(=O)(=O)Nc1ccc(F)c(C(=O)c2c[nH]c3ncc(-c4ccc(Cl)cc4)cc23)c1F`, the viability, T/C (compound 0.0316 µM) is 104% [middle of 4 runs]; the viability, T/C (compound 0.1 µM) was 88.8% [middle of 4 runs]; the viability, T/C (compound 0.316 µM) is 94% [middle of 4 runs]; the viability, T/C (compound 1 µM) is 99.4% [middle of 4 runs]; the viability, T/C (compound 10 µM) was 5.55% [middle of 4 runs]. Besides, the IC50 (curve of compound) is 5.05 µM [middle of 4 runs].
With `CCN1CCN(Cc2ccc(Nc3ncc(F)c(-c4cc(F)c5nc(C)n(C(C)C)c5c4)n3)nc2)CC1`, the viability, T/C was 98.9% [middle of 4 runs] (compound 0.00316 µM), 98.3% [middle of 4 runs] (compound 0.316 µM) and 78% [middle of 4 runs] (compound 1 µM). Moreover, the half-maximal inhibitory concentration (IC50) (curve of compound) was above 1 µM.
`CNC(=O)c1ccc(N2C(=S)N(c3ccc(C#N)c(C(F)(F)F)c3)C(=O)C2(C)C)cc1F`: the viability, T/C reads like this: (compound 0.0316 µM) 92.1% [middle of 4 runs]; (compound 0.1 µM) 106% (2×) and 93.2% and 121%; (compound 0.316 µM) 89% [middle of 4 runs]; (compound 1 µM) 85.3% [middle of 4 runs]; (compound 3.16 µM) 91.6% [middle of 4 runs]. The IC50 (curve of compound) is above 10 µM.
Regarding `COc1c(OCCCN2CCOCC2)ccc2c3n(c(=NC(=O)c4cnc(N)nc4)nc12)CCN3`, the viability, T/C reads like this: (compound 0.00316 µM) 102% [middle of 8 runs]; (compound 0.316 µM) 40.8% [middle of 8 runs]; (compound 1 µM) 22.5% [middle of 8 runs]. The IC50 under setting [2] is 250 nM [middle of 7 runs].
For `C[C@@H](NC(=O)c1ncnc(N)c1Cl)c1ncc(C(=O)Nc2cc(C(F)(F)F)c(Cl)cn2)s1`, the viability, T/C (compound 0.0316 µM) was 115% [middle of 4 runs]; the viability, T/C (compound 0.1 µM) was 95.1% [middle of 4 runs]; the viability, T/C (compound 0.316 µM) is 107% [middle of 4 runs]; the viability, T/C (compound 10 µM) is 94.3% [middle of 4 runs]. For the setting “curve of compound”, the half-inhibitory concentration (IC50) is above 10 µM.
For `Cc1nc(NC(=O)N2CCCC2C(N)=O)sc1-c1ccnc(C(C)(C)C(F)(F)F)c1` (stereo not given), the viability, T/C is, setting by setting: (compound 0.0316 µM) 95.8% [middle of 8 runs]; (compound 0.1 µM) 97.5% [middle of 8 runs]. Also, the half-maximal inhibitory concentration (IC50) under setting [1] was above 10 µM.
For the molecule `Cn1cnc2c(F)c(Nc3ccc(Br)cc3Cl)c(C(=O)NOCCO)cc21`, the viability, T/C by setting is: (compound 0.949 µM) 83.3% [middle of 4 runs]; (compound 3 µM) 79.8% [middle of 4 runs]. The IC50 (curve of compound) was above 3 µM.
For the molecule `Cn1ncc(Cl)c1-c1cc(C(=O)NC(CN)Cc2cccc(F)c2)sc1Cl` (stereo not given), the viability, T/C is 90.9% [middle of 4 runs] (compound 0.1 µM), 84.6% [middle of 4 runs] (compound 1 µM) and 76.5% [middle of 4 runs] (compound 3.16 µM). For the same molecule, for the setting “curve of compound”, the IC50 is above 10 µM.
Turning to `Cn1nccc1Nc1nccc(-c2ccn(C(CO)c3ccc(Cl)c(F)c3)c(=O)c2)n1` (stereo not given), the viability, T/C was 101% [middle of 4 runs] (compound 0.1 µM); 101% (2×) and 108% and 94.5% (compound 0.316 µM); 94.1% [middle of 4 runs] (compound 3.16 µM); 78.3% [middle of 4 runs] (compound 10 µM). Besides, the concentration for half-maximal inhibition (IC50) (curve of compound) was above 10 µM.
As to `Cn1ncnc1[C@H]1c2n[nH]c(=O)c3cc(F)cc(c23)N[C@@H]1c1ccc(F)cc1`, the viability, T/C is, setting by setting: (compound 0.000316 µM) 105% [middle of 4 runs]; (compound 0.00316 µM) 93.9% [middle of 4 runs]; (compound 0.01 µM) 88.9% [middle of 4 runs]; (compound 0.0316 µM) 110% (2×) and 104% and 93.3%; (compound 0.1 µM) 104% [middle of 4 runs]. The IC50 (curve of compound) was above 0.1 µM.

Values taken from PubChem BioAssay AID1963972 (Molecular Pharmacology Branch, DTP, NCI, 2024).
